Activity calls are given as the source filed them.
Experiments:
Type in all cases: functional, cell-based
[1] = tested on: iNKT; assay: Release of IL2 from mouse iNKT hybridoma stimulated by bone marrow-derived mouse DC at 0.2 ug/ml
[2] = tested on: iNKT; assay: Release of IL4 and IFN-gamma from human iNKT cells stimulated by C1R cell expressing human CD1d at 20 ug/ml
[3] = tested on: iNKT; assay: Release of IL4 and IFN-gamma from human iNKT cells stimulated by C1R cell expressing human CD1d at 5 ug/ml

Measured: Activity

CCCCCCCCCCCCC/C=C/[C@@H](O)[C@H](CO[C@@H]1O[C@H](CO)[C@@H](O[C@@H]2O[C@H](CO)[C@H](O)[C@H](O[C@H]3O[C@H](CO)[C@H](O)[C@H](O)[C@H]3O)[C@H]2O)[C@H](O)[C@H]1O)NC(=O)CCCCCCCCCCCCCCCCCCCCCCCCC
active: all assays above
